In ChEMBL document CHEMBL1201862, “PubChem BioAssay data set” (2004):
Activity calls are given as the source filed them.

Columns and labels:
cells = assay type: functional, cell-based
HEK293 = experiment: SAR Analysis of small molecule inhibitors of T-cell specific antigen receptor-induced NF-kB activation in a HEK-293T cell line using a luminescence assay - Set 2. [Related pubchem assays (depositor defined):AID435003, AID435012, AID489026]; assay type: functional, cell-based; settings: Homo sapiens
[1] = loss of viability in HepG2 cells – cell-based, CellTiter-Glo, cherry-picked, cytotoxicity control for Shn3 inhibitor project, dose response (AID 624134); assay type: functional
Caspase-6 = molecular target: T1, Caspase-6 (Homo sapiens, UniProt P55212); experiment: inhibition of CASP6 peptide cleavage – biochemical, VEID-R110 fluorescence, cherry-pick, dose response (AID 720632)
T1 sequence (P55212 whole entry): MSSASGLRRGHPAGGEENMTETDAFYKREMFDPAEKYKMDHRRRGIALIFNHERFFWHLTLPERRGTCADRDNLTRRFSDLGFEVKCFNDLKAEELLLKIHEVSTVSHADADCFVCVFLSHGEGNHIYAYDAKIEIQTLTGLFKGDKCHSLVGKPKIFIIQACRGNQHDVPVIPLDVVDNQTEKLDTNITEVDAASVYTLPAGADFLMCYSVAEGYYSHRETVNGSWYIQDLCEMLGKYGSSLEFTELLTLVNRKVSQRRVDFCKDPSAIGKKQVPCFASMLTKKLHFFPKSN

[2] = molecular target: T2, Histone-lysine N-methyltransferase NSD2 (Homo sapiens, UniProt O96028); assay type: biochemical
T2 sequence (O96028 whole entry): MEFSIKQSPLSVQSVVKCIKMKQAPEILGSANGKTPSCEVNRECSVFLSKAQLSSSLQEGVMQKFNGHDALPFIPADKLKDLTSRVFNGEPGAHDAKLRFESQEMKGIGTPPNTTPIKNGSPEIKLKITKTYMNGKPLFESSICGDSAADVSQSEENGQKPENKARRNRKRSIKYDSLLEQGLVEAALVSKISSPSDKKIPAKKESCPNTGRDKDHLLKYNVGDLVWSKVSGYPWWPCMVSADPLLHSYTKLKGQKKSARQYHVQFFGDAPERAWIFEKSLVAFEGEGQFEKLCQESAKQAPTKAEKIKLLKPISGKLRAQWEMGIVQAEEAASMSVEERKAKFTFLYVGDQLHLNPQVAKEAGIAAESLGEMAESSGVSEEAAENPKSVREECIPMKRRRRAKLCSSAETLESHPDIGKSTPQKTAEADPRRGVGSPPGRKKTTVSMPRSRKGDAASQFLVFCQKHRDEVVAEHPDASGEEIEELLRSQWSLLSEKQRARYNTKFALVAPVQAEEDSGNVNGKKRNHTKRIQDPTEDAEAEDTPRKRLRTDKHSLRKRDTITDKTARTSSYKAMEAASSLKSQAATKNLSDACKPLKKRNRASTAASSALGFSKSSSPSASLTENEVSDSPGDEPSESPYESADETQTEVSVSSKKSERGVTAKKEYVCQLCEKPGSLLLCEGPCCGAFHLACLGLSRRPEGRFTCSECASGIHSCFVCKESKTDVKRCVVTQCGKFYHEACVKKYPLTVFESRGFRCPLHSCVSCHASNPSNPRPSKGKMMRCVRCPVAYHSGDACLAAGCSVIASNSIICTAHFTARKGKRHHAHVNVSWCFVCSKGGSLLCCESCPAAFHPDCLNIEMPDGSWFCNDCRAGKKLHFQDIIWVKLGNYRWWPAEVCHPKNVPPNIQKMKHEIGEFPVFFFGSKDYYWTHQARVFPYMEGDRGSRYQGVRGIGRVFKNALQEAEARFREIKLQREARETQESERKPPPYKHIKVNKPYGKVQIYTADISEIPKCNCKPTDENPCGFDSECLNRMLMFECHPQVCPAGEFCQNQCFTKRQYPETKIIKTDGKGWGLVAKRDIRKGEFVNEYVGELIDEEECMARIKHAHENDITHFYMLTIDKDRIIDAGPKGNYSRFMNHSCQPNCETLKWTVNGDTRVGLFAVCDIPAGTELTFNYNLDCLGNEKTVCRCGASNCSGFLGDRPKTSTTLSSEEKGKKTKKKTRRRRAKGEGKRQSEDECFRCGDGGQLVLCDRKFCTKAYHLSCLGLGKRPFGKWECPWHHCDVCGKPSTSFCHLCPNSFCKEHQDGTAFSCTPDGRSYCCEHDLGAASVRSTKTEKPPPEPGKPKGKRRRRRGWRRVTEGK

Caspase-8 = Caspase-8 (Homo sapiens, UniProt Q14790); experiment: inhibitors of purified CASP8 protease – biochemical, Z-IETD-R110 fluorescence, cherry-picked samples, selectivity assay for caspase-6 inhibitor project, dose response (AID 743294)
[3] = molecular target: T3, Sentrin-specific protease 8 (Homo sapiens, UniProt Q96LD8); assay type: functional;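 further: luminescence read-out of SENP8 inhibition, dose-response confirmation following an ultra-high-throughput screen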
T3 sequence (Q96LD8 whole entry): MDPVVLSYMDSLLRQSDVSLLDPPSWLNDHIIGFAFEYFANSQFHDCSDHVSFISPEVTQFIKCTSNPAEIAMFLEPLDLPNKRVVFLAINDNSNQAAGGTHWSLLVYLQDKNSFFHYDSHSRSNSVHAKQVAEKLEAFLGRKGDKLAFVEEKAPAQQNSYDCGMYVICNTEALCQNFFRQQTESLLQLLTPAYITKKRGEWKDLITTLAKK

Caspase-3 = molecular target: T4, Caspase-3 (Homo sapiens, UniProt P42574); assay type: functional;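 further: Dose-response selectivity test against caspase-3 for candidate inhibitors of sentrin-specific proteases (SENPs)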
T4 sequence (P42574 whole entry): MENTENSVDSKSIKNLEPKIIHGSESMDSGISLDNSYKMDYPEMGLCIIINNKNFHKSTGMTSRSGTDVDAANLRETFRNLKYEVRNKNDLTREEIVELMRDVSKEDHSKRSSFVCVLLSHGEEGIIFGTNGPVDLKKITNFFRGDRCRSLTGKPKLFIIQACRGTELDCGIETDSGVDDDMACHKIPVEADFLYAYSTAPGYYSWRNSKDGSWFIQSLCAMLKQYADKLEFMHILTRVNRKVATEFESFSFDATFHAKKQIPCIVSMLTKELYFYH

Caspase-8, sequence (Q14790 217-374 limits assumed): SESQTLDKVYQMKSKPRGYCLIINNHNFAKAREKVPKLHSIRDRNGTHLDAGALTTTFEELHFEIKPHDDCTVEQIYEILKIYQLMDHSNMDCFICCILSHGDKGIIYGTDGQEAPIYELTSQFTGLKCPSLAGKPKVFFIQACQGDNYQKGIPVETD
Caspase-8, sequence (Q14790 385-479 limits assumed): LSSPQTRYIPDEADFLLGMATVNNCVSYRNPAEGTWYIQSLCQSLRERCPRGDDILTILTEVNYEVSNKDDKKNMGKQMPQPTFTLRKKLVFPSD

CCCCC(=O)NC(c1ccc(N(C)C)cc1)c1ccc2cccnc2c1O (stereo not drawn)
active: EC50 (cells) 3.94 µM | IC50 (HEK293) 2.23 µM | AC50 [1] 2.47 µM

CN(CC(=O)Nc1ccccc1Cl)C(=O)COC(=O)c1ccc([N+](=O)[O-])s1
active: AC50 (Caspase-6) 4.3 µM | AC50 [2] 8.27 µM | AC50 (Caspase-8) 23.8 µM | IC50 [3] 3.95 µM | IC50 (Caspase-3) 6.21 µM
